According to patent publication US12053533B2, “Fluorescent probe for cyclooxygenase-2” (The Board of Trustees of the University of Illinois, priority 2020, dated 2024):
Entries after “also recorded” stand apart in the source; their conditions may differ.

How the values were obtained:
[1] = target: T1, COX-1 isolated from bovine vesicles (Bos taurus, UniProt O62664); assay: Isoform selectivity: CoxFluor incubated with COX-1; assay type: biochemical; conditions: even in the presence of 10-fold excess enzyme activity
T1 construct: COX-1 isolated from bovine vesicles; from tissue; host or cells: bovine vesicles
T1 sequence (O62664 25-600): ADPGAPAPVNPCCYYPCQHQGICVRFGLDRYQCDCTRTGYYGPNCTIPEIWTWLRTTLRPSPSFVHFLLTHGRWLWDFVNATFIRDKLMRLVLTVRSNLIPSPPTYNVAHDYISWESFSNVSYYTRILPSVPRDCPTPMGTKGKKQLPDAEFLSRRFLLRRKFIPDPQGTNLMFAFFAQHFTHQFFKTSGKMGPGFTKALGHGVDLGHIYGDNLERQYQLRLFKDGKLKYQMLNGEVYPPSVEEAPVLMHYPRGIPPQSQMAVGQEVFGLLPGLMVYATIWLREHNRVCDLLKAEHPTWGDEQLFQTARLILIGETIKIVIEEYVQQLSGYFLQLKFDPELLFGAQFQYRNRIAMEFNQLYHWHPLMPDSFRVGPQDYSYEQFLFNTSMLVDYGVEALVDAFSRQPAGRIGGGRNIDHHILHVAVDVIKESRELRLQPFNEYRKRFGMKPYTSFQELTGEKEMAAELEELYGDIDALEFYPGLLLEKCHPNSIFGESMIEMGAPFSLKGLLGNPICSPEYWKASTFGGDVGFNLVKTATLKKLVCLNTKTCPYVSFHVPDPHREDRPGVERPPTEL
Description: Enzyme Selectivity. Enzyme activity was defined as the amount substrate (μmol) consumed during one minute by one milligram of enzyme in 100 mM Tris-HCl at pH 8.0 under saturating conditions. Enzyme concentrations were measured using the BCA assay (Thermo Fisher Scientific) according to the published protocol with bovine serum albumin for the standard curve. […] The oxygen electrode was calibrated using 1% sodium sulfite for 0% oxygen and atmosphere equilibrated 100 mM Tris-HCl at pH 8.0 for 100% oxygen. The reaction was monitored at 37° C. in a glass chamber with a total reaction volume of 1 mL. […] When measured, all enzyme activities were confirmed to be under saturating conditions and within the first 20% of the reaction. The selectivity of CoxFluor (10 μM) was monitored after incubation with either 0.101 U COX-2 or 1.01 U of the other enzymes, unless noted otherwise above, in 100 mM Tris-HCl buffer at pH 8.0 using the plate reader with excitation at 540 nm and emission at 590 nm. Total reaction volume was maintained at 95 μL with a final DMSO concentration of 1.26% (v/v).

[2] = CoxFluor, Ctrl-CoxFluor & Resorufin stability assays; assay type: physicochemical; conditions: 8 hours at room temperature or 37° C., with or without ambient light
Description: CoxFluor, Ctrl-CoxFluor & Resorufin Stability Assays. Stability assays were performed for a 10 μM solution of each compound in a series of buffers/solvents (100 mM Tris-HCl at pH 8.0, DMEM with 10% FBS, DMEM without serum and DMSO). Stability was assessed at room temperature or at 37° C. and in the presence or absence of ambient light. Fluorescence was measured using the plate reader with excitation at 540 nm and emission from 560-700 nm and the relative turn-on was determined by the change of fluorescence intensity at 590 nm.

[3] = system: RAW 264.7 macrophage cells; assay: Cell viability (trypan blue exclusion and MTT) in RAW 264.7 macrophage cells; assay type: cell-based, mouse; conditions: 6 h incubation
Description: Trypan Blue Exclusion Cytotoxicity Assay. 6-well plates were seeded with 300,000 cells per well (2 mL of 150,000 cells/mL) and incubated at 37° C. with 5% CO2 for 48 to 72 h (˜60-80% confluent). Media was removed and replaced with either 5, 10, or 25 μM CoxFluor in fresh serum-free DMEM media (1.25% DMSO v/v final concentration). […] The trypsin was quenched with the addition of 1.8 mL DMEM media containing 10% FBS and the cells were mixed thoroughly before diluting 1:1 with trypan blue (0.4% in PBS w/v). Percent viability was measured using a Countess® II FL Automated Cell Counter (Thermo Fisher Scientific), where the parameters were optimized to identify live and dead cells. Viability was calculated by the relative to the vehicle control.
MTT Cytotoxicity Assay. […] The media was removed at various time points (3 or 6 h) and replaced with 200 μL 20:1 mixture of FBS-free DMEM and (3-(4,5-dimethylthiazol-2-yl)-2,5-diphenyl-tetrazolium bromide (MTT, 5 mg/mL stock in PBS). The cells were incubated for 4 h under the same conditions and then the medium was removed and replaced with DMSO (200 μL/well). The absorbance of each well was recorded after a 1:5 dilution in DMSO at 555 nm on a microplate reader. Viability was calculated by the absorbance relative to the vehicle control.

[4] = system: endogenous COX-2 activity in RAW 264.7 macrophage cells; assay: Confocal live-cell imaging of LPS-activated RAW 264.7 macrophages; assay type: cell-based, mouse; conditions: CoxFluor 10 μM, 4 h, LPS 1 μg/mL, BSO 200 μM
Description: Confocal Fluorescence Live-Cell Imaging of Lipopolysaccharide-activated RAW 264.7 Macrophages. The surface exposed substrate of 4-well chambered cover glasses was coated with R&D Systems™ Cultrex Poly-L-Lysine (Fisher Scientific) using the manufacturer's protocol. Plates were seeded with 180,000 cells per well (500 μL of 360,000 cells/mL in DMEM media supplemented with 10% FBS) and were allowed to incubate for 38 h at 37° C. with 5% CO2 (70-80% confluent). […] The cells were incubated under these conditions for 17 h at 37° C. with 5% CO2. […] Finally, the cells were stained under identical conditions supplemented with 10 μM CoxFluor (500 μL final volume containing 1.5% DMSO final concentration). After incubation at 37° C. with 5% CO2 for 4 h, each well was imaged using a Zeiss LSM 700 confocal microscope (n=3 technical replicates; n=4 biological replicates). Images were quantified over the entire imaging window, without any processing, using ImageJ (v. 1.51, NIH). All images were processed using identical parameters and false colored (LUT: jet.lut) in ImageJ.

## CCCCC/C=C\C/C=C\C/C=C\C/C=C\CCCC(=O)N1c2ccc(O)cc2Oc2cc(O)ccc21 [CoxFluor]
[1]
  fluorescent enhancement with COX-1: not observed; also recorded: No fluorescent enhancement was observed
[2]
  stability in Tris-HCl and DMEM buffer systems: stable
[3]
  cell viability: suitable viability
[4]
  fluorescent enhancement for LPS-stimulated cells relative to the control: 1.2 fold
